ChEMBL document CHEMBL1201862, “PubChem BioAssay data set” (2004)
Calls of active or inactive are those of the source. Cut-off read from the data, not from the text of the source, for most assays here: actives have a measured EC50 and inactives only a lower limit.

Tests used:
[1] = biological target: T1, RNA-binding protein pos-1 (Caenorhabditis elegans, UniProt G5EF15); experiment: inhibitors of POS-1/mex-3 RNA binding, dose response, biochemical, fluorescence polarization (AID 1964);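 note: purified POS-1 fused to maltose binding protein made in E. coli; potency of compounds blocking POS-1 binding to fluorescent RNA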
T1 sequence (G5EF15 whole entry): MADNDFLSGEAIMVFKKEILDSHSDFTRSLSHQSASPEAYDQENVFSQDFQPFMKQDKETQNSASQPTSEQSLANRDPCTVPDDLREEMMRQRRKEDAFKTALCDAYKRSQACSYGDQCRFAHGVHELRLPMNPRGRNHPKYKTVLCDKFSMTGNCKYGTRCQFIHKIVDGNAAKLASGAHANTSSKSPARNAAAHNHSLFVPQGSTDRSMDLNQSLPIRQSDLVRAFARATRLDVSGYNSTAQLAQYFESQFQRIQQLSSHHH

H4 = experiment: Luminescence Cell-Based Dose Response HTS to Identify Activators of 5'UTR Stem-Loop Driven Prion Protein mRNA Translation in H4 Neuroglioblastoma Cells. [Related pubchem assays: 1829 (Project Summary), 1814 (Primary HTS)]; format: functional; settings: Homo sapiens
[2] = cytotoxicity toward NIH3T3 fibroblasts, dose response, counter-screen, cell-based, ATP luminescence, mouse fibroblasts (AID 2010); format: functional;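 note: cells exposed to compound for about 90 hours before reading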
[3] = Luminescence Cell-Based Dose Confirmation HTS to Identify Activators of 5'UTR Stem-Loop Driven Alpha-Synuclein mRNA Translation in H4 Neuroglioblastoma Cells. [Related pubchem assays: 1829 (Project Summary), 1814 (Primary HTS)]; format: functional
[4] = inhibitors of intracellular T. cruzi replication, confirmation, NIH3T3 host cells, beta-gal luminescence (AID 2044); format: functional, cell-based;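 note: intracellular parasites grown in NIH/3T3 mouse fibroblasts as host cells; luminescent beta-galactosidase reporter signal from transgenic T. cruzi replicating inside host cells; inhibitors lower the luminescence signal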
[5] = Luminescence Cell-Based Dose Response HTS to Identify Activators of Luciferase Translation or Activity in H4 […] Cells. [Related pubchem assays: 1829 (Project Summary), 1814 (Primary HTS)]; format: functional
[6] = biological target: T2, Zinc finger protein mex-5 (Caenorhabditis elegans, UniProt Q9XUB2); experiment: MEX-5/TCR-2 RNA interaction inhibitors, dose response, biochemical, C. elegans, fluorescence polarization (AID 1960)
T2 sequence (Q9XUB2 whole entry): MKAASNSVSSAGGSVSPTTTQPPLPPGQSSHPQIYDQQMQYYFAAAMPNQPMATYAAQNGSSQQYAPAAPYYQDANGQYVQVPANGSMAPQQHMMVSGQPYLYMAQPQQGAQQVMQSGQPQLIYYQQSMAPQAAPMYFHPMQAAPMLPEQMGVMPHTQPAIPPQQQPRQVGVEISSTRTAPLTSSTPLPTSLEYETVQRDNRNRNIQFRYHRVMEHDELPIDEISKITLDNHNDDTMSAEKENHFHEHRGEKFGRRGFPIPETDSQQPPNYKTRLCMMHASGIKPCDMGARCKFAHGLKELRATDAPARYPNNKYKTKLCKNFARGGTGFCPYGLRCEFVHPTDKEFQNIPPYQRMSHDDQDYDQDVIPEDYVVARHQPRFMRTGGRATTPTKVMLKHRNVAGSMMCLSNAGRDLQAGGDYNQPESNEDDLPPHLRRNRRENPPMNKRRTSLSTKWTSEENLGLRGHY

Protein RecA = biological target: T3, Protein RecA (Mycobacterium tuberculosis, UniProt P9WHJ3); experiment: Fluorescence Cell-Free Homogeneous Dose Retest to Identify Inhibitors of RecA-Intein Splicing Activity. [Related pubchem assays (depositor defined):AID2097, AID2223, AID489010, AID492950]; format: functional
T3 sequence (P9WHJ3 whole entry): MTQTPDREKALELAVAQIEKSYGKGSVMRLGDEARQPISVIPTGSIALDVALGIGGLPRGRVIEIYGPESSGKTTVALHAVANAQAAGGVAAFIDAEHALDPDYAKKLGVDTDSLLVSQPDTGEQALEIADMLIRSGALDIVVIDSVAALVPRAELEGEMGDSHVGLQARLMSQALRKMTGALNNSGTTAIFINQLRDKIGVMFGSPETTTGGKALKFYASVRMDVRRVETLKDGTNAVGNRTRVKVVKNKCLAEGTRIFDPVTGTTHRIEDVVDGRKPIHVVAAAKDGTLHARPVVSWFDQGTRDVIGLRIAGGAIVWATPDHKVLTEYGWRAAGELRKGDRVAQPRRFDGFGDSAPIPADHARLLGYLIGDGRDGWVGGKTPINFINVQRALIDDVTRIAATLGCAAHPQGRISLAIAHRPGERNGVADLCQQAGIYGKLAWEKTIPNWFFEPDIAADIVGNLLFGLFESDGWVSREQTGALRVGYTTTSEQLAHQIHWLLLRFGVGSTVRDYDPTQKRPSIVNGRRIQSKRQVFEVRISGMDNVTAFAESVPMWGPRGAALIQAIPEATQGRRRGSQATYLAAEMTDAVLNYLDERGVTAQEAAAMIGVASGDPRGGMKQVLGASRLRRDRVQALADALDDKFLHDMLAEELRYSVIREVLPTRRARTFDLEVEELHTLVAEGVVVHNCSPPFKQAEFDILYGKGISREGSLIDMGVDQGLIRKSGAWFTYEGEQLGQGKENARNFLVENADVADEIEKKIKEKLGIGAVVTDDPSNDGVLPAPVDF

[7] = biological target: T4, Replicative DNA helicase DnaB (Mycobacterium tuberculosis, UniProt P9WMR3); experiment: DnaB intein splicing inhibitors, dose response, biochemical, cell-free fluorescence (AID 449749); format: functional
T4 sequence (P9WMR3 whole entry): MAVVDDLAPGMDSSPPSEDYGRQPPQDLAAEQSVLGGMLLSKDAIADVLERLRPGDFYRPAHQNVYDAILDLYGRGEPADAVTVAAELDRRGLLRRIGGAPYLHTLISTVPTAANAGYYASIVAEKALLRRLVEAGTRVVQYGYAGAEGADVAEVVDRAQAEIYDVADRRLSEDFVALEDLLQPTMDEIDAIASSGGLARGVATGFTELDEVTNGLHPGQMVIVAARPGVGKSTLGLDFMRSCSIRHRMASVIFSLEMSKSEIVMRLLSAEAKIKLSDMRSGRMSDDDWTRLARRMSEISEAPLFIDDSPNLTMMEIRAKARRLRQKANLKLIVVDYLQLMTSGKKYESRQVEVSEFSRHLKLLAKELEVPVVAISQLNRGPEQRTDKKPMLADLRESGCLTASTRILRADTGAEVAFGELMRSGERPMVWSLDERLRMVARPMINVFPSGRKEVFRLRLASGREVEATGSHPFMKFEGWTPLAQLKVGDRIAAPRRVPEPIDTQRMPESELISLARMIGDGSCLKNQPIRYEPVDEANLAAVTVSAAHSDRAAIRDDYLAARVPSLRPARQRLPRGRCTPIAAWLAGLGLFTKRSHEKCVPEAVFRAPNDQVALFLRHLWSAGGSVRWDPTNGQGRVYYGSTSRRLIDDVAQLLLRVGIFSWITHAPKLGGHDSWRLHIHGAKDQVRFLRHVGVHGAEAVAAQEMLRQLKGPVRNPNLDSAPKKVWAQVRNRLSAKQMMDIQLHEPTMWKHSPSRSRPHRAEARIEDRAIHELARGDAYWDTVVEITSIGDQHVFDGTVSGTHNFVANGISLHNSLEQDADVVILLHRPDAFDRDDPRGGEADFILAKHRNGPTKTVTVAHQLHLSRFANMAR

SMILES	EC50 [1]	EC50 (H4)	EC50 [2]	EC50 [3]	EC50 [4]	EC50 [5]	EC50 [6]	EC50 (Protein RecA)	AC50 [7]
CCN1CCc2c(sc(NC(=O)c3ccc4ccccc4c3)c2C(N)=O)C1	45.5 µM (active)	> 60 µM (not active)	16.8 µM (active)	36.5 µM (active)	2.47 µM (active)	7.69 µM (active)	> 300 µM (inconclusive)		
Cc1ccc(NC(=O)c2cn(-c3cccc(C)n3)cn2)cc1		> 120 µM (not active)		0.157 µM (active)		0.269 µM (active)			
c1ccc(SCc2nc(-c3ccncc3)no2)cc1		10.1 µM (active)		14.8 µM (active)		25.8 µM (active)			
CCCc1ccc2oc(C(=O)NCCCN3CCOCC3)c(C)c2c1		53.7 µM (active)		18.7 µM (active)		30.8 µM (active)			
N#Cc1c(NC(=O)C2CC2)sc2c1CCCCC2		> 120 µM (not active)		34.7 µM (active)		81.4 µM (active)			
CCCOc1cccc(-c2nc3ccccc3c(=O)o2)c1				26.3 µM (active)		16.3 µM (active)		6.81 µM (active)	9.46 µM (active)
